Several values for one entry are separate records, joined by “and”; a condition that tells them apart may be missing. Equal values may be shown once. Read-outs that look alike come from different tables or passages of the source.
Legend:
hCB2R = hCB2R (Homo sapiens, UniProt P34972); experiment: biochemical; assay type: binding
Rat recombinant TRPA1 = biological target: T1, Rat recombinant TRPA1 (Rattus norvegicus, UniProt Q6RI86); experiment: cell-based; assay type: cell-based; details: for EC50: read-out: TRPA1 Potency EC50; for IC50: vs AITC 100μM, 5 min pre-incubation, read-out: TRPA1 IC50 for antagonism or desensitization
T1 construct: expressed in transfected cells

Rat recombinant TRPV2 = biological target: T2, Rat recombinant TRPV2 (Rattus norvegicus, UniProt Q9WUD2); experiment: cell-based; assay type: cell-based; details: for IC50: vs LPC 3μM, read-out: TRPV2 IC50 for antagonism or desensitization
T2 construct: expressed in transfected cells; host or cells: HEK293 (plasmid a gift from HB Bradshaw, Indiana University)
T2 sequence (Q9WUD2 1-761): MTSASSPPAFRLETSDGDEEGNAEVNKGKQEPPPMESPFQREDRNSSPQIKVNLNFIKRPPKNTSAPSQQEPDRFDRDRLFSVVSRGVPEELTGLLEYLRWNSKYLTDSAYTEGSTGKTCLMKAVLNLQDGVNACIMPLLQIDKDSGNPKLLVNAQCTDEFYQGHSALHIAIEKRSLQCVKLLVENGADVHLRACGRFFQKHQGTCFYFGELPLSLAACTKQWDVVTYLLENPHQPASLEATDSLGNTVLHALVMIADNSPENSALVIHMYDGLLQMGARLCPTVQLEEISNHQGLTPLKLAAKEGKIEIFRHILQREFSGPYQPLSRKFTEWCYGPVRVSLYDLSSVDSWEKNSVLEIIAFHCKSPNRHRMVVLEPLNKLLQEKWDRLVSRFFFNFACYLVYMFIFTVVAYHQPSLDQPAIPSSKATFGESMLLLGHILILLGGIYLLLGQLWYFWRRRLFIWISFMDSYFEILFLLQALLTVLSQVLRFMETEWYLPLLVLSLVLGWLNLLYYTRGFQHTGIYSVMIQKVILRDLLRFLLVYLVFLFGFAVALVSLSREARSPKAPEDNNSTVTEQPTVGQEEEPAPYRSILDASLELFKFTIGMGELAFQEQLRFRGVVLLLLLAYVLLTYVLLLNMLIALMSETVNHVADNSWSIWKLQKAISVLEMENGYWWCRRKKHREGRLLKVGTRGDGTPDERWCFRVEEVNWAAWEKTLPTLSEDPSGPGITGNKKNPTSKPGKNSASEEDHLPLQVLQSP

Rat recombinant TRPV3 = biological target: T3, Rat recombinant TRPV3 (Rattus norvegicus, UniProt Q4QYD9); experiment: cell-based; assay type: cell-based; details: for IC50: vs thymol 100μM, read-out: TRPV3 IC50 for antagonism or desensitization
T3 construct: expressed in transfected cells; host or cells: HEK293 (TRPV3-HEK-293, gift from HB Bradshaw, Indiana University)
T3 sequence (Q4QYD9 1-791): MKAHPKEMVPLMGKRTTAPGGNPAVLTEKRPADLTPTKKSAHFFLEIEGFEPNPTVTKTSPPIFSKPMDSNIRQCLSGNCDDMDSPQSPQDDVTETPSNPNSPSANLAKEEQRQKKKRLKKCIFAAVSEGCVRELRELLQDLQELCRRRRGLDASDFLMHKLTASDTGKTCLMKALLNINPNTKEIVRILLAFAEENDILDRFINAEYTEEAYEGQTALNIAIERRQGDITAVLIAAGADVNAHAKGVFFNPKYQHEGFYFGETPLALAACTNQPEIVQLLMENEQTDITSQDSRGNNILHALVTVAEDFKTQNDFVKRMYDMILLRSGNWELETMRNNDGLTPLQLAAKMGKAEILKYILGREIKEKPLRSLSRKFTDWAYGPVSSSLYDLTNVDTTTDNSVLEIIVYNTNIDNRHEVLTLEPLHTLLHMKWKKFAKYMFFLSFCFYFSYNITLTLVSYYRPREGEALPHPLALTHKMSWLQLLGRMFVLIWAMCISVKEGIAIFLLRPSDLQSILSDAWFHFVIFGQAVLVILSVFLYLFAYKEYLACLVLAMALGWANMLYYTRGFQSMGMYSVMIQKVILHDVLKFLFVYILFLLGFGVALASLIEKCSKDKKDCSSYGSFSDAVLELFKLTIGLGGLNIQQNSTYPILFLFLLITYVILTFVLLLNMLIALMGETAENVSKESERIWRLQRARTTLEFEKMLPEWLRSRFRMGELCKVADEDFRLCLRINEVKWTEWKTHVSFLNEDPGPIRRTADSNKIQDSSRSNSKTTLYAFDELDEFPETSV

alpha 1A (h) = biological target: T4, alpha 1A (h) (Homo sapiens, UniProt P35348); experiment: CEREP panel; assay type: binding; details: 10 µM
T4 construct: CEREP
T4 sequence (P35348 1-466): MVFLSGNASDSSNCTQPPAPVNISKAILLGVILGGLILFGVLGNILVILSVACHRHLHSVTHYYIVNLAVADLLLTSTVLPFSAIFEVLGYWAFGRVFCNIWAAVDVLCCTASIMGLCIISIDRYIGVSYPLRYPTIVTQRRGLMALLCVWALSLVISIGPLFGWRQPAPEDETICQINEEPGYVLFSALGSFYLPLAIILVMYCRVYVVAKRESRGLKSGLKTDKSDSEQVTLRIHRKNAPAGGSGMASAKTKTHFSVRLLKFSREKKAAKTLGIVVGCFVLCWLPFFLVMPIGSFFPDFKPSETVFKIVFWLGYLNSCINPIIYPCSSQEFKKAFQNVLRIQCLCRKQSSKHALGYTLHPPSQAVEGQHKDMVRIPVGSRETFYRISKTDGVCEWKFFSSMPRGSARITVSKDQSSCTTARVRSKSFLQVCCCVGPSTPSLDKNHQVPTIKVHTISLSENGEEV

AR (h) = experiment: CEREP panel; assay type: binding, human; details: 10 µM
beta 1 (h) = biological target: T5, beta 1 (h) (Homo sapiens, UniProt P08588); experiment: biochemical; assay type: binding; details: 10 µM
T5 construct: CEREP

BZD (central) = assay type: binding; details: 10 µM
mu (MOP) (h) = biological target: T6, mu (MOP) (h) (Homo sapiens, UniProt P35372); experiment: CEREP panel; assay type: binding; details: 10 µM
T6 construct: CEREP (contract assay)

kappa (KOP) = biological target: T7, kappa (KOP) (Rattus norvegicus, UniProt P34975); experiment: CEREP panel; assay type: binding; details: 10 µM
T7 construct: CEREP (contract assay)

[1] = 1 μM
hCB1R = biological target: T8, hCB1R (Homo sapiens, UniProt P21554); experiment: cell-based
T8 construct: host or cells: CHO

[2] = CHO membranes, Leiden, HU210 and SR144528 from Roche

hCB2R, sequence (P34972 whole entry): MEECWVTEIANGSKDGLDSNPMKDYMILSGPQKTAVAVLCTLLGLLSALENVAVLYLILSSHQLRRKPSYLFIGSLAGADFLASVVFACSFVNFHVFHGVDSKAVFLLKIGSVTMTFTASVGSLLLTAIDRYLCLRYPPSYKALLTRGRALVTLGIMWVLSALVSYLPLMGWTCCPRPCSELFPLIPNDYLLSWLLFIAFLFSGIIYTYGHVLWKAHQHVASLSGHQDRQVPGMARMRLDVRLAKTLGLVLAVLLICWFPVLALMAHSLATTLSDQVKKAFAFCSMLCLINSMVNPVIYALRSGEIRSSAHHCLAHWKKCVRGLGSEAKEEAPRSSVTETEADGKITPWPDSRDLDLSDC
T1 sequence (Q6RI86 whole entry): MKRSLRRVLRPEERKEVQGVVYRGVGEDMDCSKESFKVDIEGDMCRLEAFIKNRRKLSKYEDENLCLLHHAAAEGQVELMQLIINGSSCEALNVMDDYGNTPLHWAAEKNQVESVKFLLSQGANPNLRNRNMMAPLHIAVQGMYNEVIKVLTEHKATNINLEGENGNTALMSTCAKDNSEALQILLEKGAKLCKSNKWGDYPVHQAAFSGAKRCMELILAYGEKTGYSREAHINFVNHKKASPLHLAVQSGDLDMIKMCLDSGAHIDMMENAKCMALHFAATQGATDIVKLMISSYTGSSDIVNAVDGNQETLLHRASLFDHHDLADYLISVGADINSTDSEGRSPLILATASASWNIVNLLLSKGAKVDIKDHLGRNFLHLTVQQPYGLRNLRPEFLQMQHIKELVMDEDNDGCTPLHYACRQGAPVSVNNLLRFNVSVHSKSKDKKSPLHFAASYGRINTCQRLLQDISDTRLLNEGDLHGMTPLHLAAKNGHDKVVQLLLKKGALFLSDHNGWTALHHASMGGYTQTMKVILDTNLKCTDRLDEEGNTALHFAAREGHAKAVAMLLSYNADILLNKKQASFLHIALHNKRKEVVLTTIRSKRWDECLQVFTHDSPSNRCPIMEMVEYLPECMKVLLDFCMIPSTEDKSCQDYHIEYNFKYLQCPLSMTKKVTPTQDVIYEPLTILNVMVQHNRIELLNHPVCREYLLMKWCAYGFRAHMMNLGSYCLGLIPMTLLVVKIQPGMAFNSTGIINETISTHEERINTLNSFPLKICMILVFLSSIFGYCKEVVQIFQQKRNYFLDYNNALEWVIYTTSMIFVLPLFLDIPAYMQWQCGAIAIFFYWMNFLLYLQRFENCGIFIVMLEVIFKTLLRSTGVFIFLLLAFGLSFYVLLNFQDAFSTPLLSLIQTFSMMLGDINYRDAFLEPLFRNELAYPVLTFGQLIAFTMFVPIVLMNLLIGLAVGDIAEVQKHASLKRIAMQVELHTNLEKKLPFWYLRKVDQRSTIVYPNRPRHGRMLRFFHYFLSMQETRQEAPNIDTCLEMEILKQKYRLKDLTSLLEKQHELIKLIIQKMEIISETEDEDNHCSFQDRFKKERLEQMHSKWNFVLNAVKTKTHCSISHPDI
T6 sequence (P35372 whole entry): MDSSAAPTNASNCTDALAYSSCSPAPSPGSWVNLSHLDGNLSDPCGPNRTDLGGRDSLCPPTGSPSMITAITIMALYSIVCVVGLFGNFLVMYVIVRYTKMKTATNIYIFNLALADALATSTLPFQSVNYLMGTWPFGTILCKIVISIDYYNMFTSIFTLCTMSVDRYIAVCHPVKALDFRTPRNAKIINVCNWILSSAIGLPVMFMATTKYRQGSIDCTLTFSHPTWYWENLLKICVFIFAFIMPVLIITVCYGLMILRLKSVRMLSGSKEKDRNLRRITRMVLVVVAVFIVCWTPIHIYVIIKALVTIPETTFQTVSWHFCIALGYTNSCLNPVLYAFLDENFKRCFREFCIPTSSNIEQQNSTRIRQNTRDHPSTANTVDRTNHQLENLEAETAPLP
T7 sequence (P34975 whole entry): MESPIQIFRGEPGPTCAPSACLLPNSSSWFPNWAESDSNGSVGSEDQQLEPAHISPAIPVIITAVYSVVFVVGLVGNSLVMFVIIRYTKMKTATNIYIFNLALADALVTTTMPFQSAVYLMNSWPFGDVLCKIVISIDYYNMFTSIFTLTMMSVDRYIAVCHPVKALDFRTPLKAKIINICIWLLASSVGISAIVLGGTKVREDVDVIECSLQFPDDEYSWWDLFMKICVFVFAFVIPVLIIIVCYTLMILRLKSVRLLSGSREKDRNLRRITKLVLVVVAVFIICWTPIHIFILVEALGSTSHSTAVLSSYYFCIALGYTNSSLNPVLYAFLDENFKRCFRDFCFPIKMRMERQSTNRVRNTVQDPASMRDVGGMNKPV
T8 sequence (P21554 whole entry): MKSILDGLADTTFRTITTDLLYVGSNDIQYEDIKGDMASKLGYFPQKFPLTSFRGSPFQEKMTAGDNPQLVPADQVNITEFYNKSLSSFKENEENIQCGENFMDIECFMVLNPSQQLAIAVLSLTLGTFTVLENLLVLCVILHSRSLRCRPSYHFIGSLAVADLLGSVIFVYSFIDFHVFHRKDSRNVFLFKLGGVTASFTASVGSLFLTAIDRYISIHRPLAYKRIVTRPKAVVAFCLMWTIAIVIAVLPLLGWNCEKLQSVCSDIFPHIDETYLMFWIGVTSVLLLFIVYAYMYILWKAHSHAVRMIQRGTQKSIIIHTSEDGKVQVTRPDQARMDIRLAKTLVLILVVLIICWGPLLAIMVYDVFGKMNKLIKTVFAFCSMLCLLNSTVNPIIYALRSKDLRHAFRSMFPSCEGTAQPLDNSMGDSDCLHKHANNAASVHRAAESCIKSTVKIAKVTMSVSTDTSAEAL
T5 sequence (P08588 whole entry): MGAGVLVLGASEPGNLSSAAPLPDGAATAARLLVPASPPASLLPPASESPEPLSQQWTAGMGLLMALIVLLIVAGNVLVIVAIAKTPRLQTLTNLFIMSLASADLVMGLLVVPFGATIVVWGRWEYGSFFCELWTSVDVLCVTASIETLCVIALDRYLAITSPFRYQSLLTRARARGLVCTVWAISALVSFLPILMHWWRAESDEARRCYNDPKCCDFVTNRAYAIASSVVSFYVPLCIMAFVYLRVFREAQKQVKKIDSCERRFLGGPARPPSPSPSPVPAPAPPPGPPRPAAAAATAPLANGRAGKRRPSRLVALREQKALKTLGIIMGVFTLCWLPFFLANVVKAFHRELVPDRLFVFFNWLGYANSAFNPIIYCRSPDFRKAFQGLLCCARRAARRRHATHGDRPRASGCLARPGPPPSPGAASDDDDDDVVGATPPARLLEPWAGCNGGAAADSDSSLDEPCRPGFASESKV

Structure (SMILES)	pKi ± SEM hCB2R (hCB2R)	TRPA1 Efficacy (%AITC 100μM) (Rat recombinant TRPA1)	EC50 (Rat recombinant TRPA1) [µM]	IC50 (Rat recombinant TRPA1) [µM]	TRPV2 Efficacy (% ionomycin 4μM) (Rat recombinant TRPV2) [%]	IC50 (Rat recombinant TRPV2) [µM]	TRPV3 Efficacy (% ionomycin 4μM) (Rat recombinant TRPV3) [%]	IC50 (Rat recombinant TRPV3) [µM]	% inhibition alpha 1A (h) (alpha 1A (h)) [%]	% inhibition AR (h) (AR (h)) [%]	% inhibition beta 1 (h) (beta 1 (h)) [%]	% inhibition BZD (central) (BZD (central)) [%]	% inhibition mu (MOP) (h) (mu (MOP) (h)) [%]	% inhibition kappa (KOP) (kappa (KOP)) [%]	CL hepatocytes human [1] [µL/min/mio cells]	pKi ± SEM hCB2R (hCB2R; [2])	Emax ± SEM cAMP hCB1R (hCB1R)	pEC50 ± SEM cAMP hCB1R (hCB1R)	EC50 (Rat recombinant TRPV2; read-out: TRPV2 Potency EC50) [µM]	EC50 (Rat recombinant TRPV3; read-out: TRPV3 Potency EC50) [µM]
COc1ccc(C(=O)c2c(C)n(CCN3CCOCC3)c3cc(I)ccc23)cc1 [AM630]	7.39 ± 0.02	118.0% and 118±2%	1.9	3.7 ± 0.5	< 10	35.6	< 10	> 100	47	-7	9	-12	21	57	16					
CN1CCCC[C@H]1Cn1cc(C(=O)c2cc([N+](=O)[O-])ccc2I)c2ccccc21 [(S)-AM1241]		47.5%	5.8	40.9	11.6	20.6	16.2	> 50	75	1	14	-1	46	87	37	7.02 ± 0.15	16 ± 2	< 5	5	9
Cc1ccc2c(c1)Cc1c(C(=O)NN3CCCCC3)nn(-c3ccc(Cl)cc3Cl)c1-2 [Gp-1a]		83.6% and 84 ± 1%	2.1	10.4	< 10	11.9	< 10	22.6	11	-8	30	-10	102	99	32	7.66 ± 0.11	19 ± 5	< 5		

From article PMC5216056 (Nature Communications, 2017)
